Patent US20240125768A1, “METHODS FOR MODULATING A SRC-1 CONDENSATE” (ETERN BIOPHARMA (SHANGHAI) CO., LTD., priority 2021, published 2024)
“Also recorded” adds a separate entry of the source.

Tests used:
H3K27ac = assay: ChIP-qPCR of histone modifications at YAP target regions; assay type: cell-based, human; settings: SF268 cells
Protocol: FIG. 7L illustrates analysis of indicated histone modifications at YAP targets regions #1 from SF268 cells treated with DMSO or EVG by ChIP-qPCR. Error bars show mean±s.e.m. (n=3), *p<0.05, ***p<0.001
Briefly, cells were crosslinked with 1% formaldehyde (Sigma) in culture medium for 10 min at room temperature, and chromatin from lysed nuclei was sheared to 200-1000 bp fragments using a Bioruptor® Pico (Diagenode SA). ˜50 μg of sheared chromatin and ˜2 μg of antibody were mixed. Antibody/antigen complexes were recovered with ProteinG-Dynabeads (Invitrogen) for 1.5 h at 4° C. Quantitative real-time PCR was carried out with QuantStudio™ 6 Flex Real-Time PCR Systems (Thermofisher Scientific). The amount of immunoprecipitated DNA in each sample was determined as the fraction of the input, and normalized to the IgG control. PCR Primers are listed in Supplementary Table S2.
Chromatin immunoprecipitation antibodies are listed in Supplementary […] Supplementary Methods. […] Quantitative real-time PCR was carried out with QuantStudio™ 6 Flex Real-Time PCR Systems (Thermofisher Scientific). The amount of immunoprecipitated DNA in each sample was determined as the fraction of the input, and normalized to the IgG control.

[1] = tested on: RNA polymerase II phosphorylated at Ser 5 (CTD); assay: Immunofluorescence of RNA pol II-S5P at TEAD puncta in H1299 cells; assay type: cell-based; settings: H1299 cells co-expressing YAP5SA, TEAD4-mTagBFP, mNeoGreen-SRC1; 20 μM
Protocol: FIG. 7 M illustrates immunofluorescence staining with anti-H3K27ac (red,top) and anti-RNA pol II-S5P (red, bottom) in H1299 cells co-expressing YAP5SA, TEAD4-mTagBFP(blue) and mNeoGreen-SRC1(green) treated with 20 μM EVG. EVG impaired the SRC-1 LLPS. Transcription active markerH3K27ac and active RNA polymerase II phosphorylated at Ser 5 of CTD were not enriched in SRC-1 condensates. Scale bar, 5 μm.
Cells were fixed with 4% PFA for 15 minutes at room temperature. Cells were subsequently washed with PBS (3×3 min) and blocked in PBS/BSA (3%)/Triton X-100 (0.3%) at room temperature for 60 minutes. Cells were rinsed in PBS and incubated with anti-H3K27ac (ab4729, Abcam, 1:100), anti-RNA Pol II-S5P antibody (#04-1572, Millipore, 1:200) in PBS/BSA (1%) overnight at 4° C. Cells were washed with PBST (1×PBS+Tween20 0.2%, 3×5 min) and incubated with the secondary antibody for 1 hours at room temperature. After washing with PBST(3×5 min), cells were stained with DAPI.

SRC-1 condensates = target: T1, SRC-1 condensates (Homo sapiens, UniProt Q15788); assay: Live cell imaging of SRC-1 condensates; assay type: cell-based
T1 construct: expressed in transfected cells; host or cells: SF268
Protocol: Cells were grown on 24-well glass bottom plate (Cellvis, P24-1.5H-N) and images were taken with the Leica TCS SP8 confocal microscopy system using a 100× oil objective (NA=1.4). Cells were imaged on a heated stage(37° C.) and supplemented with warmed (37° C.) humidified air.
For compounds treatment assay, SF268 cells were co-transfected with YAP5SA, TEAD4-mTagBFP2 and mNeoGreen-SRC1. YAP variant YAP5SA which is insensitive to the upstream Hippo pathway, sequestered YAP in nucleus. To circumvent the limitations brought by red fluorescent proteins, TEAD condensates which have been reported to depend on YAP, were used to characterize YAP/TEAD transcriptional condensates. Six hours after transfection, SF268 cells were seeded on 24-well glass bottom plate (Cellvis, P24-1.5H-N) and compounds were added two hours later. Cells were imaged every 30 mins after EVG or other compounds were added.
Cells were grown on 24-well glass bottom plate (Cellvis, P24-1.5H-N) and images were taken with the Leica TCS SP8 confocal microscopy system using a 100× oil objective (NA=1.4). Cells were imaged on a heated stage (37° C.) and supplemented with warmed (37° C.) humidified air. […]
Data was analyzed by images collected from 100 representative fields in each group. The spots quantification was performed based on the number and intensity of the spots through green (mNeoGreen-SRC1) and blue (TEAD4-mTagBFP2) channel. […]

lung cancer cell lines = assay: Cell proliferation of lung cancer cell lines; assay type: cell-based
Protocol: FIG. 7V illustrates cell proliferation (lung cancer cells and normal cells) affected by the treatment with elvitegravir. Error bars show mean±s.e.m. (n=3).
After 6 days [or other time period as indicated] culture, cell viability was measured using CellTiter-Glo® Luminescent Cell Viability Assay (Promega, G7572) and DMSO group was used as normalization to calculate half maximal inhibitory concentration (IC50) using Graphpad Prism software.

T1 sequence (Q15788 whole entry): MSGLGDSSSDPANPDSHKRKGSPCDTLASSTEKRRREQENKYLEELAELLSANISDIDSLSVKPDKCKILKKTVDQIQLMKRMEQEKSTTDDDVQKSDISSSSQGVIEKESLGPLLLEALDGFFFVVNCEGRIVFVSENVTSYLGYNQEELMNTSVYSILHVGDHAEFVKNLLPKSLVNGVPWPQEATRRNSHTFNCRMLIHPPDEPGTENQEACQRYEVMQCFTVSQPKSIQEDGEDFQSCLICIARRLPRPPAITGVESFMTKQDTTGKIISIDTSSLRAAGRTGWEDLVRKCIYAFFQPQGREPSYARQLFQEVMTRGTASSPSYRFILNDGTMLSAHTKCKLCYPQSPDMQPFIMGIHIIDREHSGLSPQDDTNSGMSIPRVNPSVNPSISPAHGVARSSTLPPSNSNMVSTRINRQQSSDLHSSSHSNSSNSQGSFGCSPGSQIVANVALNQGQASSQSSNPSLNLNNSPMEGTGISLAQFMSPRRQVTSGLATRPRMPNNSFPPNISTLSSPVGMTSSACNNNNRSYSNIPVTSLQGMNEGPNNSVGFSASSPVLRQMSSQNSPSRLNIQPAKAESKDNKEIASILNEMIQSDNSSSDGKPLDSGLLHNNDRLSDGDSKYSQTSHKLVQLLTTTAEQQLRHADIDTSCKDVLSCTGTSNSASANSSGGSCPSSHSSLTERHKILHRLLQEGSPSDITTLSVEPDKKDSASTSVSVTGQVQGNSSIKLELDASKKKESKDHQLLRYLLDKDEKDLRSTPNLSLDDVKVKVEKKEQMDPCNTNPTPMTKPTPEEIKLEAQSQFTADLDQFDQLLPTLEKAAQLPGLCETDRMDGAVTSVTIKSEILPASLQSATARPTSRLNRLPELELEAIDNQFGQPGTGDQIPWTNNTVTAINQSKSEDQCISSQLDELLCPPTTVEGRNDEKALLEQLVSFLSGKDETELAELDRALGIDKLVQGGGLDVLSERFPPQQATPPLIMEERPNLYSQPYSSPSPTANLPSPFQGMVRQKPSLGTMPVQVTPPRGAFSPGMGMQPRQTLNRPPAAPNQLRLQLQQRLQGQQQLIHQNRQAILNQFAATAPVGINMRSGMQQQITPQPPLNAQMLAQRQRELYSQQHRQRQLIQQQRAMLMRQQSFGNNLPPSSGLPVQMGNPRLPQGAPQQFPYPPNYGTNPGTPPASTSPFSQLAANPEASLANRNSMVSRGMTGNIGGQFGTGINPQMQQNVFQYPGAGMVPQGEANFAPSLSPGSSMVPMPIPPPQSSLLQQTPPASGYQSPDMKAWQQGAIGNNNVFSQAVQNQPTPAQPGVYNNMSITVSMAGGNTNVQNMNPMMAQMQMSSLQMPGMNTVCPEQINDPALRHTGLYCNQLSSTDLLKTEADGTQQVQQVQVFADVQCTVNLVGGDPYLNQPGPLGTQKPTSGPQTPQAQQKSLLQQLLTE

With `COc1cc2c(cc1Cc1cccc(Cl)c1F)c(=O)c(C(=O)O)cn2[C@H](CO)C(C)C` [EVG, 6-[(3-chloro-2-fluorophenyl)methyl]-1-[(2S)-1-hydroxy-3-methylbutan-2-yl]-7-methoxy-4-oxoquinoline-3-carboxylic acid] the “H3K27ac mark levels at YAP target genes” value (H3K27ac) was “reducing”, the “RNA polymerase II phosphorylated at Ser 5 (CTD) at TEAD puncta” value [1] was “no effect” and the “SRC-1 condensates / SRC1 phase separation (LLPS)” value (SRC-1 condensates; H1299 cells co-transfected with YAP5SA, TEAD4-mTagBFP, mNeoGreen-SRC1, 20 μM) was “impaired; also recorded: selectively disrupted”. The “nuclear SRC-1 puncta formation” value (SRC-1 condensates; H1299 cells expressing either mNeoGreen or mScarlet labeled SRC-1, time course) was “impaired the LLPS of SRC-1 in time-dependent manner; also recorded: suppressed” and the “proliferation of lung cancer cell lines” value (lung cancer cell lines) was “effectively inhibited”.
